In PMC10100467, “The Function of Two Radical‐SAM Enzymes, HcgA and HcgG, in the Biosynthesis of the [Fe]‐Hydrogenase Cofactor” (Angewandte Chemie (International Ed. in English), 2022):

Biological target: T1, HcgA (Methanococcus maripaludis, UniProt Q6M0Z2)
T1 construct: His-tagged, produced in Escherichia coli with helper plasmid pRKISC; [4Fe-4S] radical SAM enzyme, CX5CX2C motif
T1 sequence (Q6M0Z2 1-341): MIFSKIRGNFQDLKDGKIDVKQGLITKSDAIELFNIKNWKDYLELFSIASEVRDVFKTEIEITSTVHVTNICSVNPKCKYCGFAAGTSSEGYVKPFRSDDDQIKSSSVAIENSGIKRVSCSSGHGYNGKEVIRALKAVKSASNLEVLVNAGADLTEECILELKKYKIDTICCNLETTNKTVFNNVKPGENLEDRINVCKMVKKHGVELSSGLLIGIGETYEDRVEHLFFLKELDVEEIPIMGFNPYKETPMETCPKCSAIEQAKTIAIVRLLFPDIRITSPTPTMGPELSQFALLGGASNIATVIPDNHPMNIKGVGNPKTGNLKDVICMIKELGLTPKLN
Experiment: radical SAM activity, HPLC-MS of product […]
Format: biochemical
Settings: 1 mM SAH, without added SAM; 3 kDa filtrate of the delta-hcgA cell extract as substrate

**Q.** How did the “relative activity (%)” value turn out when `Nc1ncnc2c1ncn2[C@@H]1O[C@H](CSCC[C@H](N)C(=O)O)[C@@H](O)[C@H]1O` [S-adenosyl homocysteine] was run?
**A.** The HcgA activity was inhibited by a radical SAM enzyme inhibitor, S‐adenosyl homocysteine
